# Assay results: patent US20070203079A1, “Methods of using small molecule compounds for neuroprotection” (priority 2005, published 2007)
# Structures can show the parent of a compound that is named as a salt.
# Legend:
# Type in all cases: in vivo, C. elegans
# [1] = test system: Pdat-1::GFP+Pdat-1::α-synuclein+Pdat-1::torsinA worms; experiment: α-synuclein toxicity assay, wt torsinA
# Summary of the method: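 C. elegans lines expressing GFP and α-synuclein in dopamine neurons, with wild-type or ΔE torsinA, exposed to compounds; readout is the share of worms keeping all 4 wild-type CEP dopamine neurons as 4-day adults.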
# [2] = test system: protein misfolding and aggregation in transgenic worms; experiment: Preventative assay of protein aggregation (drug from hatching to L2 stage); details: exposure from hatching to L2 stage; scored at L3 and young adult
# Summary of the method: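 Transgenic worms were raised on drug plates at 20° C from hatching to L2 (about 3 days), then moved to solvent control plates. Aggregates were counted in L3 worms 8 hours later and in young adults 32 hours later. Scaled effectiveness = […], with A as solvent-only worms, B as lifelong-drug worms and C as pre-L2-exposed worms.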
# [3] = test system: worms expressing Punc-54::Q82::GFP+Punc-54::torsinA with wt torsinA only; experiment: Protein aggregate assay in worms with wt torsinA only
# Method: C elegans nematodes were grown at 20° C. on NGM plates as described by Brenner (Brenner, Genetics, 1974, 77: 71-94). Several transgenic C. elegans lines were used for primary screens of the Prestwick small molecule library. A transgenic worm line expressing Punc-54::Q82-GFP; with both wild type (“wt”) (Punc=54: :torsinA) or mutant (Punc-54::torsinA(ΔE)). Torsin-A expresses a phenotype that results in visible protein aggregation under fluorescent microscope. Transgenic worms were plated on drug plates and progeny were studied for a return to soluble protein.
# Drugs were administered to C. elegans according to a standard procedure (Rand and Johnson, Methods Cell Biol, 1995, 48: 187-204), by mixing the solubilized drug with the agar medium on which the worms are grown. This mode of administration allows the continuous exposure of worms to the drug.
# Each drug was first dissolved in an appropriate solvent, followed by adding the drug solution into pre-autoclaved media, with the volume of drug solution already taken into account. […]
# The screening assays used to identify the compounds use protein aggregation readouts to determine the specificities of molecular action. […]
# The methods for the aggregate analysis assay are described in Caldwell et al. (Hum Mol Genetics, 2003, 12(3): 307-319). […] MetaMorph Software (Universal Imaging Inc.) was used for pseudocoloration of images, image overlay, and aggregate size quantitation. For each worm line analyzed, average aggregate size was determined by capturing images of all aggregates in the posterior region of 30 L3-staged animals (for Q82::GFP aggregates) or all aggregates in 30 adult animals/day (for Q19::GFP analyses) at 1000× magnification. […]
# To see the effect of the candidate compounds on suppressing protein misfolding and aggregation, five gravid adult worms were placed onto each drug plate and grown at 20° C. for approximately 3 days. Thirty Fl worms at L3 stage and young adult stage were counted for aggregate number.
# [4] = test system: protein misfolding and aggregation in transgenic worms; experiment: Corrective assay of protein aggregation (drug from L2 stage onward); details: drug exposure from L2 stage onward; scored at L3 and young adult
# Method: To see the corrective effect of the candidate drug compounds on protein misfolding and aggregation, five gravid adult worms were placed onto a solvent control plate and grown at 20° C. for approximately 3 days. 35-40 Fl worms at L2 stage were picked and transferred to a drug plate. Thirty worms at L3 stage were counted for aggregate number 8 hours later. Thirty young adults were analyzed 32 hours later.
# To calculate the scaled effectiveness of special regimen of drugs on worms based on standardized decrease in protein aggregates. The following formula was used: (A−B)/(A−C)×100%, where
# A=number of aggregates for worms growing on solvent control plates
# B=number of aggregates for worms grown on the specific drug plate for the entire life of the worms
# C=number of aggregates for worms that received exposure from L2 stage (until adulthood)
# If the regimen has no effect, the value would equal 0%. Conversely, if the regimen was as effective as raising the worms on the drug for their entire life, the value would equal 100%.
compound,measurement,setting,value
"C=N[C@@H](C(=O)N[C@@H]1C(=O)N2[C@@H]1SC(C)(C)[C@@H]2C(=O)O)c1ccccc1 [Compound 235, Metampicillin sodium salt]",enhanced wild type DA neuron survival,[1],30.3±7%
same,preventative effect on protein aggregation,[2],seem to be beneficial
same,reduction of protein aggregation,[3],reduced protein aggregation
same,corrective effect on protein aggregation,[4],seem to be beneficial
